Data reported in patent US8952024B2, “Herbicidal pyrimidone derivatives” (E I du Pont de Nemours and Company, priority 2009, dated 2015).

What was measured:
Experiment in all cases: Test B pre-/postemergence plant response
Type in all cases: in vivo
[1] = tested on: green foxtail (Setaria viridis)
Outline: (§1)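 Response scores were assigned visually after 13 to 15 days in a greenhouse, comparing treated pots with controls on a 0–100 scale where 100 denotes complete control. Preemergence treatments went onto freshly seeded loam/sand soil; postemergence treatments onto plants 2 to 18 cm tall.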

[2] = tested on: Surinam grass (Brachiaria decumbens)
Outline: as §1

[3] = tested on: large crabgrass (Digitaria sanguinalis)
Outline: as §1

soybean (Glycine max) = tested on: soybean (Glycine max)
Outline: as §1

[4] = tested on: woolly cupgrass (Eriochloa villosa)
Outline: as §1

[5] = tested on: downy bromegrass (Bromus tectorum)
Outline: as §1

corn (Zea mays) = tested on: corn (Zea mays)
Outline: as §1

[6] = tested on: pigweed (Amaranthus retroflexus)
Outline: as §1

[7] = tested on: johnsongrass (Sorghum halepense)
Outline: as §1

kochia (Kochia scoparia) = tested on: kochia (Kochia scoparia)
Outline: as §1

[8] = tested on: velvetleaf (Abutilon theophrasti)
Outline: as §1

[9] = tested on: morningglory (Ipomoea coccinea)
Outline: as §1

wild oat (Avena fatua) = tested on: wild oat (Avena fatua)
Outline: as §1

[10] = tested on: lambsquarters (Chenopodium album)
Outline: as §1

[11] = tested on: yellow nutsedge (Cyperus esculentus)
Outline: as §1

[12] = tested on: goosegrass (Eleusine indica)
Outline: as §1

[13] = tested on: blackgrass (Alopecurus myosuroides)
Outline: as §1

[14] = 31 g ai/ha, postemergence, scale 0 to 100, 0 is no effect, 100 is complete control
[15] = 62 g ai/ha, postemergence, 0 is no effect, 100 is complete control, 13 to 15 days
[16] = 250 g ai/ha, Preemergence, 0 to 100 scale
[17] = Postemergence, 125 g ai/ha, visual rating after 13 to 15 days, scale 0 (no effect) to 100 (complete control)
[18] = Postemergence, 250 g ai/ha, scale 0 to 100 (0 no effect, 100 complete control)
[19] = Preemergence, 31 g ai/ha, scale 0 to 100 (0 no effect, 100 complete control)
[20] = Preemergence, 62 g ai/ha, scale 0 to 100, 0 no effect, 100 complete control
[21] = Preemergence, 125 g ai/ha, scale 0 to 100, 0 no effect, 100 complete control

CCCc1ncc(C(=O)C2=C(O)CCCC2=O)c(=O)n1CCC [Compound 72]
100: Plant response rating, Surinam Grass [2, 18] | Plant response rating, Crabgrass, Large [3, 16] | Plant response rating, Crabgrass, Large [3, 20] | Plant response rating, Crabgrass, Large [3, 21] | Pigweed plant response rating (0 to 100 scale) [6, 15] | Plant response rating, Pigweed [6, 17] | Plant response rating, Pigweed [6, 18] | Plant response rating, Pigweed [6, 21] | Velvetleaf plant response rating (0 to 100 scale) [8, 15] | Plant response rating, Velvetleaf [8, 17] | Plant response rating, Velvetleaf [8, 18] | Plant response rating, Velvetleaf [8, 20] | Plant response rating, Velvetleaf [8, 21] | Lambsquarters plant response rating (0 to 100 scale) [10, 15] | Plant response rating, Lambsquarters [10, 16] | Plant response rating, Lambsquarters [10, 17] | Plant response rating, Lambsquarters [10, 18] | Plant response rating, Goosegrass [12, 16] | Plant response rating, Goosegrass [12, 21]
75: Plant response rating, Surinam Grass [2, 14] | Plant response rating, Surinam Grass [2, 20] | Plant response rating, Surinam Grass [2, 21] | Plant response rating, Crabgrass, Large [3, 14] | Plant response rating, Kochia (kochia (Kochia scoparia); [14]) | Plant response rating, Kochia (kochia (Kochia scoparia); [20]) | Plant response rating, Nutsedge, Yellow [11, 18] | Plant response rating, Nutsedge, Yellow [11, 21]
30: Plant response rating, Oat, Wild (wild oat (Avena fatua); [17])
20: Plant response rating, Bromegrass, Downy [5, 18] | Plant response rating, Morningglory [9, 14]
45: Plant response rating, Surinam Grass [2, 19] | Plant response rating, Cupgrass, Woolly [4, 14] | Cupgrass, Woolly plant response rating (0 to 100 scale) [4, 15] | Plant response rating, Cupgrass, Woolly [4, 21] | Plant response rating, Johnsongrass [7, 18] | Plant response rating, Kochia (kochia (Kochia scoparia); [19])
5: Plant response rating, Corn (corn (Zea mays); [17]) | Plant response rating, Blackgrass [13, 16]
10: Plant response rating, Foxtail, Green [1, 14] | Plant response rating, Corn (corn (Zea mays); [18]) | Johnsongrass plant response rating (0 to 100 scale) [7, 15] | Plant response rating, Johnsongrass [7, 16]
95: Plant response rating, Crabgrass, Large [3, 19] | Plant response rating, Soybean (soybean (Glycine max); [18])
55: Plant response rating, Morningglory [9, 20]
60: Plant response rating, Goosegrass [12, 14] | Plant response rating, Goosegrass [12, 19]
40: Plant response rating, Johnsongrass [7, 17] | Plant response rating, Oat, Wild (wild oat (Avena fatua); [18]) | Plant response rating, Nutsedge, Yellow [11, 19]
50: Plant response rating, Foxtail, Green [1, 21] | Plant response rating, Cupgrass, Woolly [4, 17] | Plant response rating, Cupgrass, Woolly [4, 18]
35: Plant response rating, Nutsedge, Yellow [11, 14]
65: Plant response rating, Cupgrass, Woolly [4, 16] | Plant response rating, Morningglory [9, 21] | Nutsedge, Yellow plant response rating (0 to 100 scale) [11, 15] | Plant response rating, Nutsedge, Yellow [11, 17] | Goosegrass plant response rating (0 to 100 scale) [12, 15] | Plant response rating, Goosegrass [12, 17]
0: Plant response rating, Foxtail, Green [1, 19] | Plant response rating, Foxtail, Green [1, 20] | Plant response rating, Cupgrass, Woolly [4, 19] | Plant response rating, Cupgrass, Woolly [4, 20] | Plant response rating, Bromegrass, Downy [5, 14] | Bromegrass, Downy plant response rating (0 to 100 scale) [5, 15] | Plant response rating, Bromegrass, Downy [5, 16] | Plant response rating, Bromegrass, Downy [5, 17] | Plant response rating, Bromegrass, Downy [5, 19] | Plant response rating, Bromegrass, Downy [5, 20] | Plant response rating, Bromegrass, Downy [5, 21] | Plant response rating, Corn (corn (Zea mays); [14]) | Corn plant response rating (0 to 100 scale) (corn (Zea mays); [15]) | Plant response rating, Corn (corn (Zea mays); [16]) | Plant response rating, Corn (corn (Zea mays); [19]) | Plant response rating, Corn (corn (Zea mays); [20]) | Plant response rating, Corn (corn (Zea mays); [21]) | Plant response rating, Johnsongrass [7, 14] | Plant response rating, Johnsongrass [7, 19] | Plant response rating, Johnsongrass [7, 20] | Plant response rating, Johnsongrass [7, 21] | Plant response rating, Morningglory [9, 19] | Plant response rating, Oat, Wild (wild oat (Avena fatua); [14]) | Plant response rating, Oat, Wild (wild oat (Avena fatua); [19]) | Plant response rating, Oat, Wild (wild oat (Avena fatua); [20]) | Plant response rating, Oat, Wild (wild oat (Avena fatua); [21]) | Plant response rating, Blackgrass [13, 14] | Blackgrass plant response rating (0 to 100 scale) [13, 15] | Plant response rating, Blackgrass [13, 17] | Plant response rating, Blackgrass [13, 18] | Plant response rating, Blackgrass [13, 19] | Plant response rating, Blackgrass [13, 20] | Plant response rating, Blackgrass [13, 21]
85: Plant response rating, Crabgrass, Large [3, 17] | Plant response rating, Soybean (soybean (Glycine max); [17]) | Kochia plant response rating (0 to 100 scale) (kochia (Kochia scoparia); [15]) | Plant response rating, Kochia (kochia (Kochia scoparia); [16]) | Plant response rating, Kochia (kochia (Kochia scoparia); [21]) | Morningglory plant response rating (0 to 100 scale) [9, 15]
98: Plant response rating, Pigweed [6, 19] | Plant response rating, Pigweed [6, 20] | Plant response rating, Velvetleaf [8, 14] | Plant response rating, Velvetleaf [8, 19] | Plant response rating, Lambsquarters [10, 19] | Plant response rating, Lambsquarters [10, 20] | Plant response rating, Lambsquarters [10, 21] | Plant response rating, Goosegrass [12, 20]
70: Foxtail, Green plant response rating (0 to 100 scale) [1, 15] | Plant response rating, Nutsedge, Yellow [11, 20] | Plant response rating, Goosegrass [12, 18]
90: Plant response rating, Foxtail, Green [1, 16] | Plant response rating, Foxtail, Green [1, 17] | Plant response rating, Foxtail, Green [1, 18] | Plant response rating, Crabgrass, Large [3, 18] | Plant response rating, Kochia (kochia (Kochia scoparia); [17]) | Plant response rating, Kochia (kochia (Kochia scoparia); [18]) | Plant response rating, Morningglory [9, 17] | Plant response rating, Morningglory [9, 18] | Plant response rating, Lambsquarters [10, 14]
80: Surinam Grass plant response rating (0 to 100 scale) [2, 15] | Plant response rating, Surinam Grass [2, 17] | Crabgrass, Large plant response rating (0 to 100 scale) [3, 15] | Plant response rating, Soybean (soybean (Glycine max); [14]) | Soybean plant response rating (0 to 100 scale) (soybean (Glycine max); [15]) | Plant response rating, Pigweed [6, 14]
